According to article PMC8844822, “SARM1 is a multi-functional NAD(P)ase with prominent base exchange activity, all regulated bymultiple physiologically relevant NAD metabolites” (iScience, 2022):

Assays:
hCD38 = molecular target: T1, hCD38 (Homo sapiens, UniProt P28907); assay: Base exchange reactions at neutral pH (HPLC); assay type: biochemical
T1 construct: a soluble fragment Val43-Ile300 with 6x-His tag at C terminus; 6xHis (C); purchased R&D Systems
T1 sequence (P28907 43-300): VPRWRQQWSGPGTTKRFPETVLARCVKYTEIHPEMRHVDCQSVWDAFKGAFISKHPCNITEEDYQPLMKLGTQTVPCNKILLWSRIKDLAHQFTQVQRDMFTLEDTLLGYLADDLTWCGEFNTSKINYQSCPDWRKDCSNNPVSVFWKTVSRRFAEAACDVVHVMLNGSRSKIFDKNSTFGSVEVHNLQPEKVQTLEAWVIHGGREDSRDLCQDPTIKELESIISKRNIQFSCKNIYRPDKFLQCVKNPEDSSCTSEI

hSARM1 full length = molecular target: T2, hSARM1 full length (Homo sapiens, UniProt Q6SZW1); assay: Base exchange reactions at neutral pH (HPLC); assay type: biochemical
T2 construct: Human recombinant SARM1 full length proteins (wild-type and E642A mutant); made in house
T2 sequence (Q6SZW1 28-724): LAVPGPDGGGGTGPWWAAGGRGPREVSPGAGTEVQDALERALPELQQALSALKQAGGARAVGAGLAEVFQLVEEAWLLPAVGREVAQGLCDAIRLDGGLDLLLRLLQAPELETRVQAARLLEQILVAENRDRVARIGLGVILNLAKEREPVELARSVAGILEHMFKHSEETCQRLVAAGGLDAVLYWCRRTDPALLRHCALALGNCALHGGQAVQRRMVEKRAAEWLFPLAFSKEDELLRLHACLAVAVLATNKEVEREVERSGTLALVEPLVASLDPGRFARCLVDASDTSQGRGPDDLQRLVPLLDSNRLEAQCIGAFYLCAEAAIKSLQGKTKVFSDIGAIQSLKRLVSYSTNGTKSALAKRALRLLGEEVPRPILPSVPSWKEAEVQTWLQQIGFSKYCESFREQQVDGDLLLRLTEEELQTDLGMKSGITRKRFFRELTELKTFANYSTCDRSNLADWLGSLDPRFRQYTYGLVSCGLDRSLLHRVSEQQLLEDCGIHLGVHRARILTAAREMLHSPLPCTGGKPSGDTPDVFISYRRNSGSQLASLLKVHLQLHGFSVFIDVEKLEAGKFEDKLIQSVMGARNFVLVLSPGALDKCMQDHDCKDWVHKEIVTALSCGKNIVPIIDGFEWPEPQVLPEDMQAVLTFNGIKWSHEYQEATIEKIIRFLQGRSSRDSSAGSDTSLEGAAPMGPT

[1] = NAD […] alone or + AcPyr 2 mM / Vacor 0.5 mM / Na 2 mM
[2] = NADP […] alone or + AcPyr 2 mM / Vacor 0.5 mM / Na 2 mM
[3] = hSARM1 full length +NMN 0.2 mM, NAD […]
[4] = hSARM1 full length +NMN 0.2 mM, NAD […] alone or + free base
[5] = hSARM1 full length +NMN 0.2 mM, NAD […], relative to NAD alone without trigger
[6] = hSARM1 full length +NMN 0.2 mM, NADP […]
[7] = hSARM1 full length +NMN 0.2 mM, NADP […] alone or + free base
[8] = hSARM1 full length +NMN 0.2 mM, NADP […], relative to NADP alone without trigger
[9] = hSARM1 full length +VMN 0.05 mM, NAD […]
[10] = hSARM1 full length +VMN 0.05 mM, NAD […] alone or + free base
[11] = hSARM1 full length +VMN 0.05 mM, NAD […], relative to NAD alone without trigger
[12] = hSARM1 full length +VMN 0.05 mM, NADP […]
[13] = hSARM1 full length +VMN 0.05 mM, NADP […] alone or + free base
[14] = hSARM1 full length +VMN 0.05 mM, NADP […], relative to NADP alone without trigger
[15] = hSARM1 full length, no trigger, NAD […] alone or + AcPyr 2 mM / Vacor 0.5 mM / Na 2 mM, pH 7.5
[16] = hSARM1 full length, no trigger, NADP […] alone or + AcPyr 2 mM / Vacor 0.5 mM / Na 2 mM, pH 7.5

SMILES	rate (hCD38; [1])	rate (hCD38; [2])	base exchange, share of products (hSARM1 full length; [3])	cyclization, share of products (hSARM1 full length; [3])	hydrolysis, share of products (hSARM1 full length; [3])	rate (hSARM1 full length; [4])	rate (relative fold) (hSARM1 full length; [5])	base exchange, share of products (hSARM1 full length; [6])	hydrolysis, share of products (hSARM1 full length; [6])	rate (hSARM1 full length; [7])	rate (relative fold) (hSARM1 full length; [8])	base exchange, share of products (hSARM1 full length; [9])	cyclization, share of products (hSARM1 full length; [9])	hydrolysis, share of products (hSARM1 full length; [9])	rate (hSARM1 full length; [10])	rate (relative fold) (hSARM1 full length; [11])	base exchange, share of products (hSARM1 full length; [12])	hydrolysis, share of products (hSARM1 full length; [12])	rate (hSARM1 full length; [13])	rate (relative fold) (hSARM1 full length; [14])	further results
CC(=O)c1cccnc1 [AcPyr, 3-acetylpyridine]	8284 ±992 mU/mg	3255 ±787 mU/mg	92.73%	0.80%	6.47%	218.5 ±37.4 mU/mg	10.02 ±1.71 fold	93.20%	6.80%	131.1 ±17.0 mU/mg	8.92 ±1.16 fold	93.61%	0.68%	5.72%	228.9 ±18.9 mU/mg	10.49 ±0.867 fold	94.18%	5.82%	140.7 ±13.3 mU/mg	9.57 ±0.907 fold	rate (hSARM1 full length; [15]): 42.6 ±3.34 mU/mg; rate (hSARM1 full length; [16]): 26.6 ±1.71 mU/mg
O=C(NCc1cccnc1)Nc1ccc([N+](=O)[O-])cc1 [Vacor, 1-(4-nitrophenyl)-3-(pyridin-3-ylmethyl)urea]	6818 ±1376 mU/mg	3496 ±593 mU/mg	20.86%	7.06%	72.08%	180.1 ±8.72 mU/mg	8.26 ±0.400 fold	23.61%	76.34%	134.7 ±5.67 mU/mg	9.16 ±0.386 fold	44.98%	4.75%	50.27%	206.2 ±1.12 mU/mg	9.45 ±0.051 fold	35.56%	63.94%	148.5 ±4.61 mU/mg	10.11 ±0.314 fold	cyclization, share of products (hSARM1 full length; [6]): ~ 0.05%; cyclization, share of products (hSARM1 full length; [12]): 0.50%; rate (hSARM1 full length; [15]): 29.5 ±2.55 mU/mg; rate (hSARM1 full length; [16]): 22.9 ±1.68 mU/mg; base exchange products VAD(P) or NaAD(P), share of total products (hSARM1 full length; hSARM1 full length, NAD or NADP 250 μM, vacor 0.5 mM, Na 2 mM): 20%–30%
